The test system of this series is L-929 cells (fibroblasts). Description: Cytotoxicity of graft exudates according to USP <87> (cell lysis, inhibition of cell growth). As to conditions: 24 hours, USP <87> qualitative method.

Experimental: The acellular dermal implants obtained after treatment with the solvent/detergent were powdered and mixed with 1 ml of distilled water for every 300 mg of the powder. To 4 g of the mixed sample was added 20 ml of physiological saline, followed by extraction at 37° C. for 72 hours. Tests were conducted within 24 hours after the completion of the extraction. The extract was mixed at a volume ratio of 1:2 with a culture medium (MEM). L-929 cells (fibroblasts), which are usually used in inhibition tests because of their high susceptibility to chemicals, were plated at a density of 10^5 cells per ml before culturing. […] This experiment was repeated three times while cytotoxicity was evaluated according to the qualitative method of USP <87>.
In order to examine whether the solvent/detergent solution remaining in the acellular dermal implants had toxic effects on cells of the patient, the exudates from the grafts were assayed for cytotoxicity.

Regarding `C[S+](C)[O-]` [Positive Control, DMSO], the “Exudate Grades (cytotoxicity)” value is reported as 4.

These data come from patent US20100047308A1, “Production methods of virus inactivated and cell-free body implant” (priority 2006, published 2010).
